Measured values published in ChEMBL document CHEMBL1124139, “2,4-Dihydro-3H-1,2,4-triazole-3-thiones as potential antidepressant agents” (J Med Chem, 1988).

Experiments:
[1] = species on record: Mus musculus; assay: Antidepressant activity was evaluated by measuring its ability to antagonize reserpine-induced ptosis in mice; type: functional
[2] = Acute cytotoxicity was evaluated as LD50 in mice (ip); type: organism-based; settings: mouse, in vivo
[3] = target: T1, Amine oxidase [flavin-containing] A (Rattus norvegicus, UniProt P21396); assay: Concentration required to inhibit Monoamine oxidase A activity in rat brain using [14C]5-HT; type: tissue-based
T1 sequence (P21396 whole entry): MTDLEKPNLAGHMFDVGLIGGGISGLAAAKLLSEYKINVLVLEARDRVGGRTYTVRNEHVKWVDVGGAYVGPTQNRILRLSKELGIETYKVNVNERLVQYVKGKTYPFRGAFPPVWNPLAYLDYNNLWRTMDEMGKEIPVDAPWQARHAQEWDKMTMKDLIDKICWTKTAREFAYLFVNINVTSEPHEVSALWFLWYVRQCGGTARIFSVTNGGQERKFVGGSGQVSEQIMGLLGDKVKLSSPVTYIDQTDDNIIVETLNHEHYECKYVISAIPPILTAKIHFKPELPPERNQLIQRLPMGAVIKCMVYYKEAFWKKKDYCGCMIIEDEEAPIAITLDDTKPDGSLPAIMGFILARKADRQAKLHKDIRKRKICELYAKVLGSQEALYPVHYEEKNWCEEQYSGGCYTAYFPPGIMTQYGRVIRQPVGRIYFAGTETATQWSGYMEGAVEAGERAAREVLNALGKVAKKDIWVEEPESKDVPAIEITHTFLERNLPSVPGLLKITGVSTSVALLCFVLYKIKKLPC

[4] = species on record: Mus musculus; assay: Antidepressant activity was evaluated by measuring its ability to antagonize RO 4-1284-induced hypothermia in mice; type: functional
[5] = target: T2, Amine oxidase [flavin-containing] B (Rattus norvegicus, UniProt P19643); assay: Concentration required to inhibit Monoamine oxidase B in rat brain using [14C]phenylethylamine; type: tissue-based; set-up: Control: scale not given: the % may be the effect or the level left
T2 sequence (P19643 whole entry): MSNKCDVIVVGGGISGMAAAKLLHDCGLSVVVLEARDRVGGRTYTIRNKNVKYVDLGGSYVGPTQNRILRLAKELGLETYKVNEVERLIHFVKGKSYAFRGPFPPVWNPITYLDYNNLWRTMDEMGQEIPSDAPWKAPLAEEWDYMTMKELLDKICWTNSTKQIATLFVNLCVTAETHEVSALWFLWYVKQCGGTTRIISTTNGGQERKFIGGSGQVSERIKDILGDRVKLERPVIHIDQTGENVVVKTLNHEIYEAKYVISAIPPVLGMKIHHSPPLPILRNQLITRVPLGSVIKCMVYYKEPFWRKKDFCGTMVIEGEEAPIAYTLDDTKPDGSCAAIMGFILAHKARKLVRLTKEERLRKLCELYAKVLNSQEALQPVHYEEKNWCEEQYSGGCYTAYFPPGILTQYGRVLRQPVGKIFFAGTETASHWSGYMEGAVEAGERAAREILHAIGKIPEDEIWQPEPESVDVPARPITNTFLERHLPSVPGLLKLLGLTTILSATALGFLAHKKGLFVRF

[6] = species on record: Rattus norvegicus; assay: Concentration required to inhibit [3H]- NE(norepinephrine) uptake in to rat cortical synaptosomes; type: functional; set-up: scale not given: the % may be the effect or the level left; settings: Brain
[7] = species on record: Rattus norvegicus; assay: Concentration required to inhibit [3H]- NE(norepinephrine) uptake into rat cortical synaptosomes; type: functional; set-up: scale not given: the % may be the effect or the level left; settings: Brain
[8] = test system: Rattus norvegicus; assay: Percent inhibitory activity caused by norepinephrine after 1 i.p. injection of 10 mg/kg administered (acute treatment); type: functional; settings: ip, route intraperitoneal
[9] = test system: Rattus norvegicus; assay: Percent inhibitory activity caused by norepinephrine after ip injection of 10 mg/kg administered once a day for 21 days (chronic treatment); type: functional; settings: 504 h, route intraperitoneal
[10] = test system: Rattus norvegicus; assay: Inhibitory activity of compound against ability of NE to enhance the inhibition produced by GABA after ip injection of 10 mg/kg administered once a day for 21 days (chronic treatment); type: functional; settings: 504 h, route intraperitoneal
[11] = test system: Rattus norvegicus; assay: Inhibitory activity of compound against ability of NE to enhance the inhibition produced by GABA after 1 i.p. injection of 10 mg/kg administered (acute treatment); type: functional; settings: ip, route intraperitoneal
[12] = test system: Rattus norvegicus; assay: Ability of compound to inhibity the ability of NE to enhance the inhibition produced by GABA after 1 i.p. injection of 10 mg/kg administered (acute treatment); type: functional; settings: ip, route intraperitoneal
[13] = test system: Rattus norvegicus; assay: Ability of compound to inhibity the ability of NE to enhance the inhibition produced by GABA after ip injection of 10 mg/kg administered once a day for 21 days (chronic treatment); type: functional; settings: 504 h, route intraperitoneal

| SMILES | ED50 [1] [mg/kg] | LD50 [2] [mg/kg] | ED50 [4] [mg/kg] | other results |
| --- | --- | --- | --- | --- |
| Cn1nc(-c2cccc(F)c2)n(C)c1=S [SURITOZOLE] | 0.29 | 200 | 0.37 | MAO-A activity remaining (% of control) [3]: 105%; MAO-B activity (% of control) [5]: 96%; Control [6]: 110% |
| CC(Cc1ccccc1)NN (stereo not given) [PHENIPRAZINE] | 1.61 | 100 | 1.1 | – |
| Cc1ccc(-c2nn(C)c(=S)n2C)cc1 | 4.2 | 400 | 1.74 | – |
| CCn1nc(-c2ccc(Cl)cc2)n(C)c1=S | 100 | 400 | > 50 | – |
| Cn1nc(-c2ccccc2F)n(C)c1=S | 0.23 | 400 | 0.74 | MAO-A activity remaining (% of control) [3]: 72%; MAO-B activity (% of control) [5]: 96%; Control [7]: 106% |
| Cn1c(S)nnc1-c1ccccc1F | > 200 | > 800 | > 25 | – |
| C#CCN(C)[C@H](C)Cc1ccccc1 [SELEGILINE] | 4.9 | 200 | 1.8 | Control [5]: 13% |
| Sc1n[nH]c(-c2ccc(Cl)cc2)n1 | > 200 | > 800 | > 50 | – |
| C#CCN(C)Cc1ccccc1 [PARGYLINE] | 37.1 | 400 | 13.6 | – |
| Cn1nc(-c2ccc(Cl)cc2)nc1S | > 200 | > 800 | > 50 | – |
| CN(C)CCC=C1c2ccccc2CCc2ccccc21 [AMITRIPTYLINE] | 8.73 | 100 | 0.36 | – |
| CCn1c(-c2ccccc2)nn(C)c1=S | 1.2 | 400 | 0.58 | – |
| Cn1nc(-c2cccc(C(F)(F)F)c2)n(C)c1=S | > 200 | 400 | > 50 | – |
| CCn1c(-c2ccc(Cl)cc2)nn(C)c1=S | 21.2 | > 800 | > 50 | – |
| CCCn1c(-c2ccc(Cl)cc2)nn(C)c1=S | 12.5 | 200 | > 12.5 | – |
| CNCCCN1c2ccccc2CCc2ccccc21 [DESIPRAMINE] | 1.86 | 75 | 0.94 | inhibition in vivo at 10 mg/kg [8]: 3.5%; inhibition in vivo at 10 mg/kg [9]: 7.8%; inhibition in vivo at 10 mg/kg [10]: 49%; Control [6]: 37%; inhibition in vivo at 10 mg/kg [11]: 68% |
| Cn1nc(-c2cccc3ccccc23)n(C)c1=S | > 200 | > 800 | > 50 | – |
| CNCCCC1c2ccccc2C=Cc2ccccc21 [PROTRIPTYLINE] | 0.43 | 50 | 0.14 | – |

| SMILES | ED50 [1] [mg/kg] | LD50 [2] [mg/kg] | ED50 [4] [mg/kg] | other results |
| --- | --- | --- | --- | --- |
| Cn1nc(-c2ccccc2Cl)n(C)c1=S | 0.58 | 200 | 0.37 | – |
| Cn1nc(-c2ccc(Cl)c(Cl)c2)n(C)c1=S | 4.4 | > 800 | 29 | – |
| Cn1nc(-c2ccccc2)n(C)c1=O | > 200 | 400 | > 50 | – |
| COc1ccc(-c2nn(C)c(=S)n2C)cc1 | 3.3 | > 800 | > 25 | – |
| Cn1nc(-c2ccc(Cl)cc2Cl)n(C)c1=S | – | > 80 | > 25 | – |
| Cn1c(S)nnc1-c1ccc(Cl)cc1 | > 200 | > 800 | > 50 | – |
| Cn1nc(-c2c(F)cccc2F)n(C)c1=S | 0.36 | 400 | 0.44 | MAO-A activity remaining (% of control) [3]: 104%; MAO-B activity (% of control) [5]: 97%; Control [6]: 105% |
| CNCCC=C1c2ccccc2CCc2ccccc21 [NORTRIPTYLINE] | 4.85 | 50 | 0.71 | – |
| Cn1c(S)nnc1-c1ccccc1 | > 200 | > 800 | > 50 | – |
| Cn1nc(-c2c(Cl)cccc2Cl)n(C)c1=S | > 100 | 400 | > 50 | – |
| Cn1nc(-c2ccc(Cl)cc2)n(C)c1=S | 0.27 | 400 | 1.34 | MAO-A activity remaining (% of control) [3]: 109%; inhibition in vivo at 10 mg/kg [8]: 6.3%; inhibition in vivo at 10 mg/kg [9]: 10.9%; MAO-B activity (% of control) [5]: 75%; inhibition in vivo at 10 mg/kg [12]: 33%; Control [6]: 90%; inhibition in vivo at 10 mg/kg [13]: 0% |
| Fc1ccc(-c2n[nH]c(S)n2)cc1 | > 200 | 400 | > 50 | – |
| CN(C)CCCN1c2ccccc2CCc2ccccc21 [IMIPRAMINE] | – | – | 0.5 | – |
| Cn1nc(-c2ccc3c(c2)OCO3)n(C)c1=S | > 200 | > 800 | > 50 | – |
| Cn1nc(-c2ccc(F)cc2F)n(C)c1=S | 2.37 | 400 | 1 | – |
| Cn1nc(-c2ccc(F)cc2)n(C)c1=S | 1 | 200 | 0.61 | MAO-A activity remaining (% of control) [3]: 70%; MAO-B activity (% of control) [5]: 90%; Control [6]: 104% |
| Cn1nc(-c2ccccc2)n(C)c1=S | 0.13 | 100 | 0.15 | MAO-A activity remaining (% of control) [3]: 104%; MAO-B activity (% of control) [5]: 110%; Control [7]: 92% |
